In PMC7422936 (European journal of medicinal chemistry, 2020):
“And” between values parts separate entries of the source, which are not always exact repeats. Identical values can stand only once. Like-named read-outs stand apart in the source and are kept apart here.

Tests used:
[1] = target: CXCR4 (Homo sapiens, UniProt P61073); experiment: In vitro binding assay
[2] = test system: carrageenan-induced paw edema; experiment: Carrageenan-induced mouse paw edema model; assay type: in vivo

Sequence of CXCR4 (P61073 whole entry): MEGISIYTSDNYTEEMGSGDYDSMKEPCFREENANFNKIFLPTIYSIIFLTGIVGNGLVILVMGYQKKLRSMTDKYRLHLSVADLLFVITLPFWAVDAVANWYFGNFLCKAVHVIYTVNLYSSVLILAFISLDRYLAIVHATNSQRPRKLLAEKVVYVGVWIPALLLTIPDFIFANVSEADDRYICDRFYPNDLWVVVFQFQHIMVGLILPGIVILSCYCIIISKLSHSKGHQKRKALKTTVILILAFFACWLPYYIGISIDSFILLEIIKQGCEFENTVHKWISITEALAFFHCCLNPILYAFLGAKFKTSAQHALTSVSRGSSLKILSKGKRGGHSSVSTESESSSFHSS

EC50 [1] [nM] | IC50 [1] [nM] | EC50 ([1]; read-out: Binding Affinity (EC), EC = concentration at which the compound blocks > 50% of rhodamine Red X-TN14003, MDA-MB-231 cells, tested at 1, 10, 100, 1000 nM) [nM] | Structure (SMILES) | Reduction of edema (paw) weight ([2]; 10 mg/kg i.p. once daily, 74 h after carrageenan, n = 5, versus untreated mice) | Histology / immunohistochemistry of paw tissue ([2]; 10 mg/kg i.p., H&E and anti-CXCR4 staining)
1 | 1.25 |  | N=C(N)NCCC[C@H](N)C(=O)NC1CCN(C(=O)CCn2ccc3ccncc32)CC1 [Z7R] | 50% and ~ 50% | observable decrease in the number of inflammatory cells
 |  | 100 | NC(C(=O)NC1CCN(C(=O)CCn2ccc3ccncc32)CC1)c1ccccc1 (centres unmarked) [ZINC72372983] |  | 
